Results from ChEMBL document CHEMBL1255230, “Chemical inhibitor of nonapoptotic cell death with therapeutic potential for ischemic brain injury” (Nat Chem Biol, 2005).
Activity calls are given as the source filed them. The calls are words filed in the database; no cut-off is given here. Residues, ends and D or L forms follow the SMILES beside them. *: point of attachment. Cbz = O=C(OCc1ccccc1)*; CH2F = FC*

Columns and labels:
[1] = Inhibition of death receptor signaling mediated necroptotic cell death in human Jurkat cell deficient in FADD assessed as cell viability after 30 hrs by ATP based viability assay in presence of TNFalpha
Mus musculus [2] = assay: Inhibition of necroptosis in icv dosed mouse middle cerebral artery occlusion induced ischemic injury model assessed as reduction of infarct volume drug administered 6 hrs postocclusion; format: functional, organism-based
Mus musculus [3] = assay: Inhibition of necroptosis in icv dosed mouse middle cerebral artery occlusion induced ischemic injury model assessed as reduction of infarct volume drug administered 4 hrs postocclusion; format: functional, organism-based
Mus musculus [4] = assay: Inhibition of necroptosis in icv dosed mouse middle cerebral artery occlusion induced ischemic injury model assessed as reduction of infarct volume; format: functional, organism-based
Mus musculus [5] = assay: Inhibition of caspase3 in icv dosed mouse middle cerebral artery occlusion induced ischemic injury model after 3 hrs by Western blot method drug administered before occlusion; format: functional, organism-based
Mus musculus [6] = assay: Inhibition of necroptosis in icv dosed mouse middle cerebral artery occlusion induced ischemic injury model assessed as improvement in neurological score drug administration before occlusion; format: functional, organism-based
Mus musculus [7] = assay: Inhibition of necroptosis in mouse middle cerebral artery occlusion induced ischemic injury model assessed as reduction of infarct volume at 2-4 mM, icv before occlusion; format: functional, organism-based
Mus musculus [8] = assay: Inhibition of necroptosis in mouse middle cerebral artery occlusion induced ischemic injury model assessed as reduction of infarct volume at 2-4 mM, icv after occlusion; format: functional, organism-based
Mus musculus [9] = assay: Inhibition of necroptosis in icv dosed mouse middle cerebral artery occlusion induced ischemic injury model assessed as induction of LC3-II by Western blot method drug administered 4 hrs postocclusion; format: functional, organism-based
Mus musculus [10] = assay: Inhibition of necroptosis in icv dosed mouse middle cerebral artery occlusion induced ischemic injury model assessed as induction of LC3-II after 8 hrs by Western blot method; format: functional, organism-based
Mus musculus [11] = assay: Inhibition of necroptosis in icv dosed mouse middle cerebral artery occlusion induced ischemic injury model assessed as reduction of infarct volume drug administered 5 mins preocclusion; format: functional, organism-based
Mus musculus [12] = assay: Inhibition of necroptosis in icv dosed mouse middle cerebral artery occlusion induced ischemic injury model assessed as induction of LC3-II by Western blot method drug administered 8 hrs postocclusion; format: functional, organism-based
Mus musculus [13] = assay: Inhibition of necroptosis in icv dosed mouse middle cerebral artery occlusion induced ischemic injury model assessed as induction of LC3-II by Western blot method drug administered 6hrs postocclusion; format: functional, organism-based
Mus musculus [14] = assay: Inhibition of necroptosis in icv dosed mouse middle cerebral artery occlusion induced ischemic injury model assessed as induction of LC3-II after 26 hrs by Western blot method; format: functional, organism-based
Mus musculus [15] = assay: Inhibition of necroptosis in icv dosed mouse middle cerebral artery occlusion induced ischemic injury model assessed as improvement in neurological score drug administration after occlusion; format: functional, organism-based
Mus musculus [16] = assay: Inhibition of necroptosis in icv dosed mouse middle cerebral artery occlusion induced ischemic injury model assessed as induction of LC3-II after 5 hrs by Western blot method; format: functional, organism-based
Jurkat = assay: Ratio of compound IC50 to Nec-1 IC50 for human jurkat cells; format: functional
Mus musculus [17] = assay: Inhibition of necroptosis in icv dosed mouse middle cerebral artery occlusion induced ischemic injury model assessed as reduction of infarct volume drug administered 2 hrs postocclusion; format: functional, organism-based

CN1C(=O)NC(Cc2c[nH]c3c(Cl)cccc23)C1=O (configuration not stated)
IC50 [1]: 206 nM
inhibition (Mus musculus [2]): Active
inhibition (Mus musculus [3]): Active

O=C1NC(=S)NC1Cc1c[nH]c2ccccc12 (configuration not stated)
inhibition (Mus musculus [4]): inactive

CC(C)[C@H](NC(=O)OCc1ccccc1)C(=O)N[C@@H](C)C(=O)N[C@@H](CC(=O)O)C(=O)CF (Cbz-Val-Ala-Asp-CH2F)
inhibition (Mus musculus [2]): inactive
inhibition (Mus musculus [5]): Active

CN1C(=O)C(Cc2c[nH]c3c(Cl)cccc23)NC1=S (configuration not stated)
IC50 [1]: 182 nM
inhibition (Mus musculus [6]): Dose-dependent effect
inhibition (Mus musculus [7]): Dose-dependent effect
inhibition (Mus musculus [8]): Dose-dependent effect
Activity (Mus musculus [9]): Active
Activity (Mus musculus [10]): Active
inhibition (Mus musculus [2]): Active
inhibition (Mus musculus [11]): Active
inhibition (Mus musculus [5]): inactive
Activity (Mus musculus [12]): Active
Activity (Mus musculus [13]): Active
Activity (Mus musculus [14]): Active
inhibition (Mus musculus [15]): Dose-dependent effect
Activity (Mus musculus [16]): Active
fold change (FC) (Jurkat): 2.7
inhibition (Mus musculus [17]): Active
